The structures appear in SMILES notation. Active and inactive are the calls of the source. No cut-off for these calls is given here.

The subject of one series is Tubulin. Briefly: Inhibition of tubulin polymerization (unknown origin) by turbidimetric analysis. The format is protein-complex assay, Homo sapiens.
Another series has as its target Tubulin (Homo sapiens) (UniProt P68371+Q9H4B7+P0DPH7+P68366+Q13509+Q71U36+P04350+Q3ZCM7+P07437+P68363+Q9BQE3+Q6PEY2+Q13885+Q9BVA1+Q9BUF5). Briefly: Inhibition of tubulin polymerization (unknown origin) at 10 uM by turbidimetric analysis. Type of series: protein-complex assay.
The subject of series [1] is MDA-MB-231. Put plainly: Induction of apoptosis in human MDA-MB-231 cells assessed as necrotic cells at 2.5 uM incubated for 48 hrs by Annexin V-FITC/PI staining based flow cytometry (reference value: 1.86%). The format is functional. (In general: Flow cytometry measures light scatter and fluorescence of single cells or particles in a stream.)
Series [2] is described as follows: Cytotoxicity against human MCF-10A cells assessed as inhibition of cell growth incubated for 72 hrs by MTT assay. The format is toxicity, cell-based.
Series [3] has as its system MDA-MB-231. Put plainly: Induction of apoptosis in human MDA-MB-231 cells assessed as late apoptotic cells at 2.5 uM incubated for 48 hrs by Annexin V-FITC/PI staining based flow cytometry (reference value: 5.06%). The format is functional.
The test system of series [4] is MDA-MB-231. Put plainly: Induction of apoptosis in human MDA-MB-231 cells incubated for 24 hrs by DAPI staining based confocal laser microscopy. Type of series: functional, cell-based.
Series [5] has as its system MDA-MB-231. Put plainly: Cytotoxicity against human MDA-MB-231 cells assessed as inhibition of cell growth incubated for 72 hrs by MTT assay. The format is functional, cell-based. (In general: Tetrazolium assays rely on reduction of a dye to a coloured formazan, in cell work by metabolically active cells.)
The subject of series [6] is MDA-MB-231. Put plainly: Induction of apoptosis in human MDA-MB-231 cells assessed as early apoptotic cells at 2.5 uM incubated for 48 hrs by Annexin V-FITC/PI staining based flow cytometry (reference value: 1.71%). The format is functional.
Series [7] deals with MDA-MB-231. Put plainly: Induction of apoptosis in human MDA-MB-231 cells assessed as viable cells at 2.5 uM incubated for 48 hrs by Annexin V-FITC/PI staining based flow cytometry (reference value: 91.4%). Type of series: functional. As to conditions: read-out: Activity.
The target in series [8] is Poly [ADP-ribose] polymerase 1 (Homo sapiens, UniProt P09874). Briefly: Inhibition of PARP1 (unknown origin) using [3H]NAD+ as substrate incubated for 15 mins by scintillation counting analysis.
Chain of Poly [ADP-ribose] polymerase 1 (P09874 whole entry): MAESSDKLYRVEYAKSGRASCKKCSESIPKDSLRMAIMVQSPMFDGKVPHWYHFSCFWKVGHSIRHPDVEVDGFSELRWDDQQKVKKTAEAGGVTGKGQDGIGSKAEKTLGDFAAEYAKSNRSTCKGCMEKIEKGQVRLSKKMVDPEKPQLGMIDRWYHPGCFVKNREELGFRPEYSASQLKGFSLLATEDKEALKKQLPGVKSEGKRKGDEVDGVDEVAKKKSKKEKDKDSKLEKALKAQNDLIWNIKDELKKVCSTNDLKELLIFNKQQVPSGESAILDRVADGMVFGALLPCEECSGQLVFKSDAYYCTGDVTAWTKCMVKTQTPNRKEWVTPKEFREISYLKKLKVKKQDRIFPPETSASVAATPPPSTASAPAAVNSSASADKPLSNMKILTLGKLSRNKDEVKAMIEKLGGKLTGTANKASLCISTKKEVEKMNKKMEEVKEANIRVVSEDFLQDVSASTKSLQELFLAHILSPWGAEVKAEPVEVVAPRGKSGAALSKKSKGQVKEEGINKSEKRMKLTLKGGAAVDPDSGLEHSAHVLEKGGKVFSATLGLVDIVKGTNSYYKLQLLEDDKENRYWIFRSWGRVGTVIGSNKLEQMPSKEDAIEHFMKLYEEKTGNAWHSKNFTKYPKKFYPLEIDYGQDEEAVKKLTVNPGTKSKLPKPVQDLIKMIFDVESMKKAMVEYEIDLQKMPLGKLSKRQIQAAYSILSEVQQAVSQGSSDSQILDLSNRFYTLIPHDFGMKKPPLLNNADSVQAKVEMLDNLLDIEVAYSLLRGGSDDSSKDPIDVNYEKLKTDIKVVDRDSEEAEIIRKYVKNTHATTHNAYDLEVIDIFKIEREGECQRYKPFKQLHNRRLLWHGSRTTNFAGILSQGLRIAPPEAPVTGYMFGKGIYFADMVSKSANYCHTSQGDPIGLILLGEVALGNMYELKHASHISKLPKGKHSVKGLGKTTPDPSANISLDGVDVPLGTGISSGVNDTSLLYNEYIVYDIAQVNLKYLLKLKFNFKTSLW

A word on the IC50: it is the concentration needed to halve the response being measured. `CN(C)C(=O)Cc1ccc2[nH]c(=O)c3ccccc3c2c1`: in the series on Tubulin, the IC50 result is recorded as “Not Active”.

The inhibition is the percentage by which the read-out fell short of the control. A higher inhibition goes with a response far below the control. With `COc1ccc(-c2nc(O)c3ccccc3n2)cc1`, the inhibition at Tubulin (Homo sapiens) stood at 47%.

Regarding `COc1cc2c(c(OC)c1OC)-c1ccc(OC)c(=O)cc1[C@@H](NC(C)=O)CC2` [COLCHICINE], the Activity with MDA-MB-231 [1] is reported as 2.04%; in the series with MDA-MB-231 [3], 8.1%; in the series with MDA-MB-231 [6], 1.89%. In addition, the IC50 at 72 h in [2] worked out at 6 nM. In addition, the result in the series with MDA-MB-231 [4] and in the series with MDA-MB-231 [5] was Active. In addition, the viability at 2.5 µM with MDA-MB-231 [7] came to 88%. For the same molecule, the IC50 entry in series [8] was “Not Active”.

At Tubulin (Homo sapiens), `O=c1[nH]c(/C=C/c2ccccc2)nc2ccccc12` yielded an inhibition of 82%.

For `COc1cc(/C=C/c2nc(O)c3ccccc3n2)ccc1O`, the inhibition against Tubulin (Homo sapiens) was found to be 69%.

`Cc1ccc(-c2nc3ccccc3c(=O)[nH]2)cc1`: on Tubulin (Homo sapiens), the inhibition worked out at 45%.

`O=c1[nH]c(/C=C/c2ccc([N+](=O)[O-])cc2)nc2ccccc12` registered an inhibition at Tubulin (Homo sapiens) of 61%.

At Tubulin (Homo sapiens), `O=c1[nH]c(/C=C/c2cc(Br)ccc2O)nc2ccccc12` displayed an inhibition of 63%.

In the case of `COc1ccc(-c2nc3ccccc3c(=O)[nH]2)cc1C`, at Tubulin (Homo sapiens), the inhibition was found to be 49%.

Consider `Cc1cccc(-c2nc(O)c3ccccc3n2)c1`, for which the inhibition on Tubulin (Homo sapiens) stood at 43%.

The molecule `O=c1[nH]c(/C=C/c2cccc([N+](=O)[O-])c2)nc2ccccc12` yielded an inhibition against Tubulin (Homo sapiens) of 65%.
